The source of these data is patent publication US20180353445A1, “METHODS AND COMPOSITIONS RELATING TO PROTEASOME INHIBITOR RESISTANCE” (Whitehead Institute for Biomedical Research, priority 2017, published 2018).

The subject of the assay is HepG2 cells. In words: Cell viability assay (resazurin), HepG2 cells with shRNA knockdown of proteasome subunits vs control. The class given is cell-based, human. The source says:
FIGS. 2A-2F: Reducing expression of 19S subunits increases the levels of active 20S proteasomes and protects cancer cells from proteasome (FIG. 2A) HepG2 cells were infected with 80 shRNAs targeting 20 different subunits of the proteasome and 10 control shRNAs. Infected cells were then exposed to […] bortezomib and cell number was examined 4 days later. The plot represents the average (+/−SEM) of four different hairpins targeting the indicated proteasome subunits and their relative cell number following bortezomib treatment. 19S subunits are depicted with orange bars, the control with a blue bar and 20S subunits with green bars. […] (FIG. 2C) The relative cell number of cells harboring a control shLacZ or each of 4 individual shRNAs targeting shPSMD2 was analyzed 4 days after addition of the indicated concentrations of bortezomib. (FIG. 2D) HepG2 cells stably expressing four different shRNAs targeting the PSMD2 subunit and a control shRNA (lacZ) were analyzed by western blot for the indicated proteins 24 hours with or without bortezomib treatment. […] Proteasome complex levels were detected by immunoblot analysis and 20S proteasome activity by measuring the hydrolysis of Suc-LLVY-AMC by substrate overlay assays. * p<0.05 **p<0.01. […]

Each structure is given as a SMILES string.

`CC(C)C[C@H](NC(=O)[C@H](Cc1ccccc1)NC(=O)c1cnccn1)B(O)O` [bortezomib]: the “proliferation of control cells” value (12 nM, control HepG2 cells) is “completely inhibited”. Besides, the “increase of EC50 values in cell lines with shRNA-reduced PSMD2 vs parental line” value (HepG2, four shRNAs targeting PSMD2, 4 days) was “three to six-fold”.
